From ChEMBL document CHEMBL4138123, “Design, synthesis and biological evaluation of novel pyrazolochalcones as potential modulators of PI3K/Akt/mTOR pathway and inducers of apoptosis in breast cancer cells” (Eur J Med Chem, 2017)

Tests used:
Type in all cases: functional
OVCAR-5 = test: Cytotoxicity against human OVCAR5 cells assessed as cell growth at 1 uM after 48 hrs by sulforhodamine B assay relative to control; conditions: OVCAR-5, 48 h, read-out: Activity
LOX IMVI = test: Cytotoxicity against human LOXIMVI cells assessed as growth inhibition after 48 hrs by sulforhodamine B assay
HCC 2998 = test: Cytotoxicity against human HCC2998 cells assessed as cell growth at 1 uM after 48 hrs by sulforhodamine B assay relative to control; conditions: HCC 2998, 48 h, read-out: Activity
NCI-H226 = test: Cytotoxicity against human NCI-H226 cells assessed as cell growth at 0.1 uM after 48 hrs by sulforhodamine B assay relative to control; conditions: NCI-H226, 48 h, read-out: Activity
COLO 205 = test: Cytotoxicity against human COLO205 cells assessed as cell growth at 10 uM after 48 hrs by sulforhodamine B assay relative to control; conditions: COLO 205, 48 h, read-out: Activity
UO-31 [1] = test: Cytotoxicity against human UO31 cells assessed as cell growth at 100 uM after 48 hrs by sulforhodamine B assay relative to control; conditions: UO-31, 48 h, read-out: Activity
SR [2] = test: Cytotoxicity against human SR cells assessed as cell growth at 100 uM after 48 hrs by sulforhodamine B assay relative to control; conditions: read-out: Activity
UO-31 [3] = test: Cytotoxicity against human UO31 cells assessed as cell growth at 0.1 uM after 48 hrs by sulforhodamine B assay relative to control; conditions: UO-31, 48 h, read-out: Activity
SR [4] = test: Cytotoxicity against human SR cells assessed as cell growth at 1 uM after 48 hrs by sulforhodamine B assay relative to control; conditions: read-out: Activity
HOP-62 = test: Cytotoxicity against human HOP62 cells assessed as cell growth at 0.1 uM after 48 hrs by sulforhodamine B assay relative to control; conditions: HOP-62, 48 h, read-out: Activity
M14 [5] = test: Cytotoxicity against human M14 cells assessed as cell growth at 0.1 uM after 48 hrs by sulforhodamine B assay relative to control; conditions: M14, 48 h, read-out: Activity
T47D = test: Cytotoxicity against human T47D cells assessed as cell growth at 0.01 uM after 48 hrs by sulforhodamine B assay relative to control; conditions: read-out: Activity
HCT-116 [6] = test: Cytotoxicity against human HCT116 cells assessed as cell growth at 100 uM after 48 hrs by sulforhodamine B assay relative to control; conditions: HCT-116, 48 h, read-out: Activity
SK-MEL-28 [7] = test: Cytotoxicity against human SK-MEL-28 cells assessed as cell growth at 100 uM after 48 hrs by sulforhodamine B assay relative to control; conditions: SK-MEL-28, 48 h, read-out: Activity
UO-31 [8] = test: Cytotoxicity against human UO31 cells assessed as cell growth at 10 uM after 48 hrs by sulforhodamine B assay relative to control; conditions: UO-31, 48 h, read-out: Activity
MDA-MB-468 = test: Cytotoxicity against human MDA-MB-468 cells assessed as cell growth at 10 uM after 48 hrs by sulforhodamine B assay relative to control; conditions: MDA-MB-468, 48 h, read-out: Activity
OVCAR-3 = test: Cytotoxicity against human OVCAR3 cells assessed as cell growth at 1 uM after 48 hrs by sulforhodamine B assay relative to control; conditions: OVCAR-3, 48 h, read-out: Activity
NCI-H522 = test: Cytotoxicity against human NCI-H522 cells assessed as cell growth at 100 uM after 48 hrs by sulforhodamine B assay relative to control; conditions: NCI-H522, 48 h, read-out: Activity
SF-539 [9] = test: Cytotoxicity against human SF539 cells assessed as cell growth at 10 uM after 48 hrs by sulforhodamine B assay relative to control; conditions: SF-539, 48 h, read-out: Activity
M14 [10] = test: Cytotoxicity against human M14 cells assessed as growth inhibition after 48 hrs by sulforhodamine B assay; conditions: M14, 48 h
MDA-MB-435 = test: Cytotoxicity against human MDA-MB-435 cells assessed as cell growth at 1 uM after 48 hrs by sulforhodamine B assay relative to control; conditions: MDA-MB-435, 48 h, read-out: Activity
UACC-62 [11] = test: Cytotoxicity against human UACC62 cells assessed as cell growth at 0.1 uM after 48 hrs by sulforhodamine B assay relative to control; conditions: UACC-62, 48 h, read-out: Activity
MDA-MB-231 = test: Cytotoxicity against human MDA-MB-231 cells assessed as growth inhibition after 48 hrs by sulforhodamine B assay; conditions: MDA-MB-231, 48 h
IGROV-1 = test: Cytotoxicity against human IGROV1 cells assessed as cell growth at 100 uM after 48 hrs by sulforhodamine B assay relative to control; conditions: IGROV-1, 48 h, read-out: Activity
SNB-19 = test: Cytotoxicity against human SNB19 cells assessed as cell growth at 100 uM after 48 hrs by sulforhodamine B assay relative to control; conditions: SNB-19, 48 h, read-out: Activity
Hs-578T [12] = test: Cytotoxicity against human Hs 578T cells assessed as cell growth at 0.1 uM after 48 hrs by sulforhodamine B assay relative to control; conditions: read-out: Activity
Hs-578T [13] = test: Cytotoxicity against human Hs 578T cells assessed as cell growth at 0.01 uM after 48 hrs by sulforhodamine B assay relative to control; conditions: read-out: Activity
SK-MEL-28 [14] = test: Cytotoxicity against human SK-MEL-28 cells assessed as cell growth at 10 uM after 48 hrs by sulforhodamine B assay relative to control; conditions: SK-MEL-28, 48 h, read-out: Activity
A498 = test: Cytotoxicity against human A498 cells assessed as cell growth at 10 uM after 48 hrs by sulforhodamine B assay relative to control; conditions: A498, 48 h, read-out: Activity
SF-539 [15] = test: Cytotoxicity against human SF539 cells assessed as growth inhibition after 48 hrs by sulforhodamine B assay; conditions: SF-539, 48 h
UACC-62 [16] = test: Cytotoxicity against human UACC62 cells assessed as growth inhibition after 48 hrs by sulforhodamine B assay; conditions: UACC-62, 48 h
MCF7 = test: Cytotoxicity against human MCF7 cells assessed as cell growth at 0.01 uM after 48 hrs by sulforhodamine B assay relative to control; conditions: MCF7, 48 h, read-out: Activity
UACC-62 [17] = test: Cytotoxicity against human UACC62 cells assessed as cell growth at 100 uM after 48 hrs by sulforhodamine B assay relative to control; conditions: UACC-62, 48 h, read-out: Activity
SK-MEL-5 = test: Cytotoxicity against human SK-MEL-5 cells assessed as cell growth at 0.1 uM after 48 hrs by sulforhodamine B assay relative to control; conditions: SK-MEL-5, 48 h, read-out: Activity
HCT-116 [18] = test: Cytotoxicity against human HCT116 cells assessed as cell growth at 0.01 uM after 48 hrs by sulforhodamine B assay relative to control; conditions: HCT-116, 48 h, read-out: Activity
DU-145 = test: Cytotoxicity against human DU145 cells assessed as growth inhibition after 48 hrs by sulforhodamine B assay; conditions: DU-145, 48 h

`COc1cc(C(=O)/C=C/c2cc(-c3cc(OC)c(OC)c(OC)c3)n[nH]2)cc(OC)c1OC` was tested, and the growth at 1 µM (OVCAR-5) was 89%, the LC50 (LOX IMVI) was 5.57 µM and the TGI (LOX IMVI) was 2.91 µM. It also gave a growth at 1 µM (HCC 2998) of 99%, a growth at 0.1 µM (NCI-H226) of 93% and a growth at 10 µM (COLO 205) of -100%. The growth at 100 µM (UO-31 [1]) was -100%, the growth at 100 µM (SR [2]) was 7% and the growth at 0.1 µM (UO-31 [3]) was 90%. For the same molecule, the growth at 1 µM (SR [4]) was 22%, the growth at 0.1 µM (HOP-62) was 94% and the growth at 0.1 µM (M14 [5]) was 109%. The growth at 0.01 µM (T47D) was 91%, the growth at 100 µM (HCT-116 [6]) was -88% and the growth at 100 µM (SK-MEL-28 [7]) was -97%. The growth at 10 µM (UO-31 [8]) was -95%, the growth at 10 µM (MDA-MB-468) was -90% and the growth at 1 µM (OVCAR-3) was 97%. It also gave a growth at 100 µM (NCI-H522) of -98%, a growth at 10 µM (SF-539 [9]) of -80% and an LC50 (concentration killing 50% of cells) (M14 [10]) of 6.13 µM. The TGI (M14 [10]) was 3.32 µM, the growth at 1 µM (MDA-MB-435) was 79% and the growth at 0.1 µM (UACC-62 [11]) was 95%. For the same molecule, the LC50 (MDA-MB-231) was 9.51 µM, the TGI (MDA-MB-231) was 3.8 µM and the growth at 100 µM (IGROV-1) was -97%. It also gave a growth at 100 µM (SNB-19) of -98%, a growth at 0.1 µM (Hs-578T [12]) of 90% and a growth at 0.01 µM (Hs-578T [13]) of 93%. The growth at 10 µM (SK-MEL-28 [14]) was -92%, the growth at 10 µM (A498) was -64% and the LC50 (concentration killing 50% of cells) (SF-539 [15]) was 6.23 µM. It also gave a TGI (SF-539 [15]) of 2.83 µM, an LC50 (UACC-62 [16]) of 7.6 µM and a TGI (UACC-62 [16]) of 3.68 µM. For the same molecule, the growth at 0.01 µM (MCF7) was 95%, the growth at 100 µM (UACC-62 [17]) was -97% and the growth at 0.1 µM (SK-MEL-5) was 95%. The growth at 0.01 µM (HCT-116 [18]) was 97%.

With `COc1cc2c(cc1OC)C(=O)/C(=C/c1cc(-c3ccc4c(c3)OCO4)n[nH]1)C2` the growth at 1 µM (OVCAR-5) was 84%, the growth at 1 µM (HCC 2998) was 102% and the growth at 0.1 µM (NCI-H226) was 83%. For the same molecule, the growth at 10 µM (COLO 205) was -97%, the growth at 100 µM (UO-31 [1]) was -95% and the growth at 100 µM (SR [2]) was -22%. For the same molecule, the growth at 0.1 µM (UO-31 [3]) was 85%, the growth at 1 µM (SR [4]) was 38% and the growth at 0.1 µM (HOP-62) was 100%. It also gave a growth at 0.1 µM (M14 [5]) of 96%, a growth at 0.01 µM (T47D) of 92% and a growth at 100 µM (HCT-116 [6]) of -52%. The growth at 100 µM (SK-MEL-28 [7]) was -92%, the growth at 10 µM (UO-31 [8]) was -91% and the growth at 10 µM (MDA-MB-468) was -87%. It also gave a growth at 1 µM (OVCAR-3) of 75%, a growth at 100 µM (NCI-H522) of -92% and a growth at 10 µM (SF-539 [9]) of -96%. The GI50 (M14 [10]) was 1.82 µM, the LC50 (concentration killing 50% of cells) (M14 [10]) was 6.34 µM and the TGI (M14 [10]) was 3.4 µM. For the same molecule, the growth at 1 µM (MDA-MB-435) was 93%, the growth at 0.1 µM (UACC-62 [11]) was 106% and the GI50 (MDA-MB-231) was 1.66 µM. The LC50 (MDA-MB-231) was 6.18 µM, the TGI (MDA-MB-231) was 3.2 µM and the growth at 100 µM (IGROV-1) was -82%. It also gave a growth at 100 µM (SNB-19) of -94%, a GI50 (DU-145) of 1.45 µM and a TGI (DU-145) of 2.86 µM. For the same molecule, the CC50 (DU-145; read-out: LC50 (the source's name)) was 5.64 µM, the growth at 0.1 µM (Hs-578T [12]) was 99% and the growth at 0.01 µM (Hs-578T [13]) was 95%. It also gave a growth at 10 µM (SK-MEL-28 [14]) of -92%, a growth at 10 µM (A498) of -84% and a GI50 (SF-539 [15]) of 1.27 µM. The LC50 (concentration killing 50% of cells) (SF-539 [15]) was 5.22 µM, the TGI (SF-539 [15]) was 2.57 µM and the GI50 (UACC-62 [16]) was 1.63 µM. It also gave an LC50 (UACC-62 [16]) of 5.66 µM, a TGI (UACC-62 [16]) of 3.04 µM and a growth at 0.01 µM (MCF7) of 96%. The growth at 100 µM (UACC-62 [17]) was -88%, the growth at 0.1 µM (SK-MEL-5) was 93% and the growth at 0.01 µM (HCT-116 [18]) was 105%.
